Patent US12636371B2, “Chemically coupled transporter for low-hydrophobicity bioactive drugs into the central nervous system” (Skybio LLC, priority 2021, dated 2026)

Columns and labels:
[1] = biological target: T1, recombinant human AS (α-synuclein) (Homo sapiens, UniProt P37840); experiment: Thioflavin T fluorescence assay of AS amyloid aggregation; type: biochemical; settings: 70 μM AS, 10 or 50 μM compound, 37° C., 600 rpm, 20 mM HEPES pH 7.4
T1 construct: made in house
Description: In order to evaluate the effect of Pegasus (D9) on AS amyloid fibril formation, aggregation reactions were performed according to LeVine (LeVine H, 3rd. Thioflavine T interaction with synthetic Alzheimer's disease beta-amyloid peptides: detection of amyloid aggregation in solution. Protein Sci 1993; 2(3): 404-10; LeVine H, 3rd. Quantification of beta-sheet amyloid fibril structures with thioflavin T. Methods Enzymol 1999; 309: 274-84.). In brief, the formation of cross-ß structures were followed by adding Thioflavin T (ThT), a fluorescent cross-β reporter probe, to aliquots extracted from the incubation mixture at different times.
Expression and purification of recombinant human AS were performed as previously described (Hoyer W, Antony T, Cherny D, Heim G, Jovin T M, Subramaniam V. Dependence of AS aggregate morphology on solution conditions. J Mol Biol 2002; 322(2): 383-93), and purity was assessed by SDS-PAGE. […] The protein concentration was determined by absorbance at 275 nm using the extinction coefficient ε275=5600 cm^−1 M^−1. […]
For aggregation reactions, aliquots of monomeric AS (70 μM) in 20 mM HEPES, pH 7.4 were incubated in a Thermomixer comfort (Eppendorf) at 37° C. and 600 rpm in the absence or presence of 10 or 50 μM D9. Aggregation was monitored with a Horiba FluoroMax-4 spectrofluorometer using the ThT fluorescence assay.

SH-SY5Y cells = experiment: Lysosome localization and number, LysoTracker Deep Red confocal microscopy; type: cell-based; settings: 200 μM, 24 hs
From the text: Lysosomes are the final destination of the autophagic pathway. LysoTracker™ fluorescent probes, dyes that preferentially accumulate in vesicles with acidic pH, are widely used for tracing lysosomes in living and fixed cells in order to study organelle localization, their resident proteins, assess organelle functionality, quantify lysosome numbers and abnormalities in vesicular pH (Eskelinen E L, Schmidt C K, Neu S, et al. Disturbed cholesterol traffic but normal proteolytic function in LAMP-1/LAMP-2 double-deficient fibroblasts. Mol Biol Cell 2004; 15(7): 3132-45), and to examine the efficiency of autophagosome/lysosome fusion in live cells (González-Polo R A, Boya P, Pauleau A L, et al. The apoptosis/autophagy paradox: autophagic vacuolization before apoptotic death. J Cell Sci 2005; 118 (Pt 14): 3091-102.).
The effect of Pegasus on lysosomal activity in SH-SY5Y cells was estimated by visualizing the localization and number of lysosomes, marked by LysoTracker™ Deep Red (ThermoFisher #L12492), after treatment with 200 μM of Pegasus for 24 hs. After incubation, cells were fixed in PFA 4% prepared for confocal microscopy. Images were acquired in a ZEISS LSM800 confocal microscope.

[2] = tested on: HEK293/Cytochrome C-tGFP cell line; experiment: Apoptosis assay, Cytochrome C-tGFP localization by confocal microscopy; type: cell-based; settings: 200 μM, 24 h
From the text: Identification of genes linked to familiar forms of PD have uncovered many molecular pathways involved in neurodegeneration. One of such genes is PTEN-induced kinase 1 (PINK1), a mitochondrial serine/threonine-protein kinase that protects cells from stress-induced mitochondrial dysfunction. […] In fact, PINK1 is the second most frequent causative gene in early-onset PD, where mutations in this gene cause an autosomal recessive form of the disease. Frequent missense or truncating mutations of PINK1 are implicated in the pathogenesis of PARK6 (familial type 6 of PD). […] Therefore, the release of Cytochrome C from damaged mitochondria is considered a central event in apoptotic signaling. To characterize the ability of Pegasus (D9) to induce mitochondrial damage and apoptosis, as assayed by the release of Cytochrome C from mitochondria, a transgenic Cytochrome C-tGFP HEK293 cell line was used (INNOPROT #P30801) (Goldstein J C, Muñoz-Pinedo C, Ricci J E, et al. Cytochrome C is released in a single step during apoptosis. Cell Death Differ 2005; 12(5): 453-62).
The effect of Pegasus on the localization and distribution of mitochondrial Cytochrome C-tGFP was visualized by confocal microscopy after incubation with 200 μM of D9 for 24 hs in the HEK293/Cytochrome C-tGFP cell line (INNOPROT #P30801). Images were acquired in a ZEISS LSM800 Confocal Microscope.

E. coli DH5α = experiment: Antibiotic activity by disc diffusion assay (MIC); type: cell-based; settings: disc diffusion, two-fold serial dilutions from 2 mg/ml, LB solid medium, overnight 37° C.
Description: In order to examine the antibiotic activity of the compounds synthesized in Example 1, an assay was performed using E. coli DH5α (Gram(−)), as a sensitive, indicator strain.
The antibacterial activities of test compounds were evaluated using the disc diffusion method (Kavanagh, F. Dilution methods of antibiotic assays in Analytical Microbiology. 1963; Pomares M F, Vincent P A, Farías R N, Salomón R A. Protective action of ppGpp in microcin J25-sensitive strains. J Bacteriol. 2008-190:4328-34). Briefly, filter-paper discs impregnated with 10 μl of two-fold serial dilutions of the test compounds, and were placed onto LB solid medium Petri dishes. Then, aliquots (50 μl) of an E. coli DH5α culture in stationary phase were mixed with 3 ml of top agar (0.7% agar) and overlaid onto the plates. After overnight incubation at 37° C., the plates were examined for different degrees of inhibition. Inhibition degrees produced by the test compound are expressed as Minimum Inhibitory Concentrations (MICs), defined as the lowest concentration of a compound that inhibit visible growth of bacteria. Each test was performed in duplicate vs. the reference compound Doxycycline.

## C[C@H]1c2ccc(NC(=O)CCC(=O)NCCc3ccc(O)c(O)c3)c(O)c2C(=O)C2=C(O)[C@]3(O)C(=O)C(C(N)=O)=C(O)CC3[C@@H](O)C21 (stereo partly shown) [Pegasus]
[1]
  Inhibition of AS aggregation (ThT fluorescence): able to inhibit AS aggregation
SH-SY5Y cells
  Localization and number of lysosomes (lysosome biogenesis): does not interfere with the biogenesis of lysosomes
[2]
  Localization and distribution of Cytochrome C-tGFP (marker of apoptosis): no differences in localization and distribution of Cytochrome C-tGFP
E. coli DH5α
  MIC: no antibiotic activity at the concentrations tested
